In ChEMBL document CHEMBL5532639, “Heterocyclic pyrimidine derivatives as promising antibacterial agents” (Eur J Med Chem, 2023):
Converted amounts (≈) assume the structure as drawn. Blank lines part the entries; values can stand above or below the compound they belong to.

How the values were obtained:
Assay type in all cases: functional
Micrococcus luteus [1] = assay: Antibacterial activity against Micrococcus luteus assessed as bacterial growth inhibition by paper disc diffusion assay
Staphylococcus cohnii = assay: Antibacterial activity against Staphylococcus cohnii
[2] = tested on: Corynebacterium glutamicum; assay: Antibacterial activity against Corynebacterium glutamicum ATCC 13032 cultured in MHB medium assessed as no bacterial growth incubated at 20 degC for 24 hrs by microdilution susceptibility test
[3] = tested on: Staphylococcus epidermidis; assay: Antibacterial activity against Staphylococcus epidermidis assessed as reduction in bacterial growth measured after 24 hrs by broth microdilution method
[4] = tested on: Staphylococcus epidermidis; assay: Antibacterial activity against Staphylococcus epidermidis assessed as reduction in microbial growth after 24 hrs by CLSI based microdilution method
Micrococcus luteus [5] = assay: Antibacterial activity against Micrococcus luteus assessed as reduction in microbial growth
Alcaligenes faecalis = assay: Antibacterial activity against Alcaligenes faecalis
[6] = tested on: Staphylococcus haemolyticus; assay: Antibacterial activity against Staphylococcus haemolyticus clinical isolates assessed as bacterial growth inhibition measured after 16 to 24 hrs by broth microdilution assay; conditions: time 16-24 hrs
[7] = tested on: Arcanobacterium haemolyticum; assay: Antibacterial activity against Arcanobacterium haemolyticum
Corynebacterium sp. = assay: Antibacterial activity against Corynebacterium sp.
Staphylococcus hominis = assay: Antibacterial activity against Staphylococcus hominis
Moraxella catarrhalis = assay: Antibacterial activity against Moraxella catarrhalis assessed as reduction in bacterial growth by broth microdilution method
[8] = tested on: Corynebacterium glutamicum; assay: Antibacterial activity against Corynebacterium glutamicum
Acinetobacter sp. = assay: Antibacterial activity against Acinetobacter sp.
Staphylococcus xylosus = assay: Antibacterial activity against Staphylococcus xylosus assessed as reduction in bacterial growth
Corynebacterium xerosis = assay: Antibacterial activity against Corynebacterium xerosis
Micrococcus sp. = assay: Antibacterial activity against Micrococcus sp.
Staphylococcus aureus [9] = assay: Antibacterial activity against Staphylococcus aureus assessed as bacterial growth inhibition incubated for 24 hrs by CLSI protocol based Mueller-Hinton broth assay
Enterococcus raffinosus = assay: Antibacterial activity against Enterococcus raffinosus assessed as bacterial growth inhibition incubated for 24 hrs by CLSI protocol based Mueller-Hinton broth assay
Staphylococcus aureus [10] = assay: Antibacterial activity against Staphylococcus aureus assessed as inhibition of bacterial growth incubated for 4 to 20 hrs by resazurin based microplate reader analysis; conditions: time 4-20 hrs
Pseudomonas aeruginosa [11] = assay: Antibacterial activity against Pseudomonas aeruginosa assessed as inhibition of bacterial growth incubated for 4 to 20 hrs by resazurin based microplate reader analysis; conditions: time 4-20 hrs
Escherichia coli [12] = assay: Antibacterial activity against Escherichia coli assessed as inhibition of bacterial growth incubated for 4 to 20 hrs by resazurin based microplate reader analysis; conditions: time 4-20 hrs
Bacillus subtilis [13] = assay: Antibacterial activity against Bacillus subtilis assessed as inhibition of bacterial growth incubated for 4 to 20 hrs by resazurin based microplate reader analysis; conditions: time 4-20 hrs
Escherichia coli [14] = assay: Antibacterial activity against Escherichia coli assessed as zone of inhibition at 50 microg/ml by cup plate analysis; conditions: read-out: IZ
Proteus vulgaris = assay: Antibacterial activity against Proteus vulgaris assessed as zone of inhibition at 50 microg/ml by cup plate analysis; conditions: read-out: IZ
Bacillus subtilis [15] = assay: Antibacterial activity against Bacillus subtilis assessed as zone of inhibition at 50 microg/ml by cup plate analysis; conditions: read-out: IZ
Bacillus pumilus = assay: Antibacterial activity against Bacillus pumilus assessed as zone of inhibition at 50 microg/ml by cup plate analysis; conditions: read-out: IZ
Bacillus subtilis [16] = assay: Antimicrobial activity against Bacillus subtilis assessed as diameter of inhibition zone incubated for 24 hrs by well diffusion assay
Pseudomonas aeruginosa [17] = assay: Antimicrobial activity against Pseudomonas aeruginosa assessed as diameter of inhibition zone incubated for 24 hrs by well diffusion assay
Micrococcus luteus [18] = assay: Antimicrobial activity against Micrococcus luteus assessed as diameter of inhibition zone incubated for 24 hrs by well diffusion assay
Pseudomonas aeruginosa [19] = assay: Antibacterial activity against Pseudomonas aeruginosa assessed as reduction in bacterial growth incubated for 24 hrs by broth microdilution method
Streptococcus pyogenes = assay: Antibacterial activity against Streptococcus pyogenes assessed as reduction in microbial growth incubated for 24 hrs by broth micro-dilution method
Klebsiella pneumoniae = assay: Antibacterial activity against Klebsiella pneumoniae assessed as reduction in bacterial growth incubated for 16 to 20 hrs by Mueller-Hinton broth based two-fold serial dilution method; conditions: time 16-20 hrs
Staphylococcus aureus [20] = assay: Antibacterial activity against Staphylococcus aureus assessed as reduction in bacterial growth incubated for 16 to 20 hrs by Mueller-Hinton broth based two-fold serial dilution method; conditions: time 16-20 hrs
Escherichia coli [21] = assay: Antibacterial activity against Escherichia coli assessed as reduction in bacterial growth incubated for 16 to 20 hrs by Mueller-Hinton broth based two-fold serial dilution method; conditions: time 16-20 hrs

Structure (SMILES): Clc1ccc(C(Cc2cccc(Cl)c2)c2c(Cl)nc(N3CCNCC3)nc2Cl)cc1 (centres undefined)
MIC (Micrococcus luteus [1]): 75 µg/mL (≈ 156 µM)
MIC (Staphylococcus cohnii): 75 µg/mL (≈ 156 µM)
MIC [2]: 50 µg/mL (≈ 104 µM)
MIC [3]: 75 µg/mL (≈ 156 µM)
MIC [4]: 75 µg/mL
MIC (Micrococcus luteus [5]): 100 µg/mL
MIC (Alcaligenes faecalis): > 500 µg/mL
MIC [6]: 50 µg/mL (≈ 104 µM)
MIC [7]: 10 µg/mL (≈ 20.7 µM)
MIC (Corynebacterium sp.): 75 µg/mL (≈ 156 µM)
MIC (Staphylococcus hominis): 75 µg/mL (≈ 156 µM)
MIC (Moraxella catarrhalis): 50 µg/mL (≈ 104 µM)
MIC [8]: 50 µg/mL (≈ 104 µM)
MIC (Acinetobacter sp.): 30 µg/mL (≈ 62.2 µM)
MIC (Staphylococcus xylosus): 100 µg/mL (≈ 207 µM)
MIC (Corynebacterium xerosis): 30 µg/mL (≈ 62.2 µM)
MIC (Micrococcus sp.): 75 µg/mL (≈ 156 µM)

Structure (SMILES): Nc1nc(-c2ccsc2)cc(-c2ccc(Cl)cc2Cl)n1
zone of inhibition at 50 µg/mL (Escherichia coli [14]): 12 mm
zone of inhibition at 50 µg/mL (Proteus vulgaris): 15 mm
zone of inhibition at 50 µg/mL (Bacillus subtilis [15]): 16 mm
zone of inhibition at 50 µg/mL (Bacillus pumilus): 13 mm

Structure (SMILES): Oc1ncnc(O)c1/N=N/c1ccc(/N=N/c2ccccc2)cc1
inhibition zone (IZ) (Bacillus subtilis [16]): 13 mm
inhibition zone (IZ) (Pseudomonas aeruginosa [17]): 12 mm
inhibition zone (IZ) (Micrococcus luteus [18]): 18 mm

Structure (SMILES): CN(C)c1ccc(-c2cc(-c3ccsc3)nc(N)n2)cc1
zone of inhibition at 50 µg/mL (Escherichia coli [14]): 11 mm
zone of inhibition at 50 µg/mL (Proteus vulgaris): 12 mm
zone of inhibition at 50 µg/mL (Bacillus subtilis [15]): 15 mm
zone of inhibition at 50 µg/mL (Bacillus pumilus): 12 mm

Structure (SMILES): Nc1nc(-c2ccc(F)cc2)cc(-c2ccsc2)n1
zone of inhibition at 50 µg/mL (Escherichia coli [14]): 13 mm
zone of inhibition at 50 µg/mL (Proteus vulgaris): 14 mm
zone of inhibition at 50 µg/mL (Bacillus subtilis [15]): 17 mm
zone of inhibition at 50 µg/mL (Bacillus pumilus): 14 mm

Structure (SMILES): Clc1ccc(C(Cc2ccccc2)c2c(Cl)nc(N3CCNCC3)nc2Cl)cc1 (centres undefined)
MIC (Micrococcus luteus [1]): 100 µg/mL (≈ 223 µM)
MIC (Staphylococcus cohnii): 100 µg/mL (≈ 223 µM)
MIC [2]: 50 µg/mL (≈ 112 µM)
MIC [3]: 100 µg/mL (≈ 223 µM)
MIC [4]: 100 µg/mL
MIC (Micrococcus luteus [5]): 100 µg/mL
MIC (Alcaligenes faecalis): > 500 µg/mL
MIC [6]: 100 µg/mL (≈ 223 µM)
MIC [7]: 10 µg/mL (≈ 22.3 µM)
MIC (Corynebacterium sp.): 100 µg/mL (≈ 223 µM)
MIC (Staphylococcus hominis): 100 µg/mL (≈ 223 µM)
MIC (Moraxella catarrhalis): 100 µg/mL (≈ 223 µM)
MIC [8]: 100 µg/mL (≈ 223 µM)
MIC (Acinetobacter sp.): 50 µg/mL (≈ 112 µM)
MIC (Staphylococcus xylosus): 100 µg/mL (≈ 223 µM)
MIC (Corynebacterium xerosis): 30 µg/mL (≈ 67 µM)
MIC (Micrococcus sp.): 100 µg/mL (≈ 223 µM)

The next lines start with results.

MIC (Staphylococcus aureus [9]): 4.2 µg/mL (≈ 13.2 µM)
MIC (Enterococcus raffinosus): 14.2 µg/mL (≈ 44.7 µM)
Structure (SMILES): COc1ccc(-c2nc(-c3ccccc3)nc3[nH]nc(N)c23)cc1

MIC (Staphylococcus aureus [10]): 12.5 µg/mL (≈ 24.7 µM)
MIC (Pseudomonas aeruginosa [11]): 50 µg/mL (≈ 98.7 µM)
MIC (Escherichia coli [12]): 50 µg/mL (≈ 98.7 µM)
MIC (Bacillus subtilis [13]): 12.5 µg/mL (≈ 24.7 µM)
Structure (SMILES): CCCCCCCc1ccc(C(=O)Nc2nc(C)nc3nc(-c4ccccc4)cc(C(F)(F)F)c23)cc1

MIC (Micrococcus luteus [1]): 20 µg/mL (≈ 50.2 µM)
MIC (Staphylococcus cohnii): 100 µg/mL (≈ 251 µM)
MIC [2]: 30 µg/mL (≈ 75.4 µM)
MIC [3]: > 100 µg/mL
MIC [4]: 100 µg/mL
MIC (Micrococcus luteus [5]): 20 µg/mL
MIC (Alcaligenes faecalis): 1000 µg/mL (≈ 2510 µM)
MIC (Corynebacterium sp.): 100 µg/mL (≈ 251 µM)
MIC (Staphylococcus hominis): 100 µg/mL (≈ 251 µM)
MIC (Moraxella catarrhalis): 300 µg/mL (≈ 754 µM)
MIC [8]: 30 µg/mL (≈ 75.4 µM)
MIC (Acinetobacter sp.): > 1000 µg/mL
MIC (Staphylococcus xylosus): 20 µg/mL (≈ 50.2 µM)
MIC (Corynebacterium xerosis): 20 µg/mL (≈ 50.2 µM)
MIC (Micrococcus sp.): 30 µg/mL (≈ 75.4 µM)
Structure (SMILES): Clc1ccc(C(Cc2ccccc2)c2c(Cl)nc(Cl)nc2Cl)cc1 (centres undefined)
MIC [6]: 100 µg/mL (≈ 251 µM)
MIC [7]: 10 µg/mL (≈ 25.1 µM)

MIC (Staphylococcus aureus [9]): 3.8 µg/mL (≈ 10.4 µM)
MIC (Enterococcus raffinosus): 12.3 µg/mL (≈ 33.6 µM)
Structure (SMILES): Nc1n[nH]c2nc(-c3ccccc3)nc(-c3ccc(Br)cc3)c12

MIC (Pseudomonas aeruginosa [19]): 12.5 µg/mL (≈ 22 µM)
MIC (Streptococcus pyogenes): 12.5 µg/mL
MIC (Klebsiella pneumoniae): 12.5 µg/mL (≈ 22 µM)
MIC (Staphylococcus aureus [20]): 12.5 µg/mL (≈ 22 µM)
MIC (Escherichia coli [21]): 12.5 µg/mL (≈ 22 µM)
Structure (SMILES): Nc1c(-c2nc3ccccc3s2)c(-c2ccc(Cl)cc2)nc2nc(N/N=C/c3cccc([N+](=O)[O-])c3)[nH]c(=O)c12
